In ChEMBL document CHEMBL1255503, “Biochemical and biophysical characterization of unique switch pocket inhibitors of p38α” (Bioorg Med Chem Lett, 2010):

biological target: T1, Mitogen-activated protein kinase 14 (Homo sapiens, UniProt Q16539)
T1 sequence (Q16539 whole entry): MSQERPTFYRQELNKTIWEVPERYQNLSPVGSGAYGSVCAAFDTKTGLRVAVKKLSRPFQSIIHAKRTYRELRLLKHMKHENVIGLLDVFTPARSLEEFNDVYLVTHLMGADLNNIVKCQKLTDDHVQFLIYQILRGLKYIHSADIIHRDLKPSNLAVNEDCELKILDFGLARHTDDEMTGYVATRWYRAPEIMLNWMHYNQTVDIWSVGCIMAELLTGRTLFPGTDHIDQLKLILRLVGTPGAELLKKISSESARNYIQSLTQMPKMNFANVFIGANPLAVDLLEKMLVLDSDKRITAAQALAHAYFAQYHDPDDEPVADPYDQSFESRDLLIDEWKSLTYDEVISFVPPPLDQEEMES
Description: Binding affinity to full-length GST-tagged p38alpha after 2.5 hrs by TR-FRET competition binding assay

Ki | SMILES
0.252 µM | Cc1ccc(-n2nc(C(C)(C)C)cc2NC(=O)Nc2cccc3ccccc23)cc1C(=O)NCC#N
0.112 µM | Cc1ccc(-n2nc(C(C)(C)C)cc2NC(=O)Nc2cccc3ccccc23)cc1C(=O)N[C@@H]1CS(=O)(=O)C[C@H]1O
0.301 µM | Cc1ccc(-n2nc(C(C)(C)C)cc2NC(=O)Nc2cccc3ccccc23)cc1C(=O)NCCCN1CCCC1
0.089 µM | Cc1ccc(-n2nc(C(C)(C)C)cc2NC(=O)Nc2cccc3ccccc23)cc1C(=O)N(CCCN)C1CCCCC1
0.433 µM | Cc1ccc(-n2nc(C(C)(C)C)cc2NC(=O)Nc2cccc3ccccc23)cc1C(=O)NCCNc1ccccc1
0.885 µM | Cc1ccc(-n2nc(C(C)(C)C)cc2NC(=O)Nc2cccc3ccccc23)cc1C(=O)NC1CCN(CCN2CCOCC2)CC1
0.735 µM | CCN(CCN(C)C)C(=O)c1cc(-n2nc(C(C)(C)C)cc2NC(=O)Nc2cccc3ccccc23)ccc1C
0.471 µM | Cc1ccc(-n2nc(C(C)(C)C)cc2NC(=O)Nc2cccc3ccccc23)cc1C(=O)NC[C@@H](CO)C(C)C
0.327 µM | Cc1ccc(-n2nc(C(C)(C)C)cc2NC(=O)Nc2cccc3ccccc23)cc1C(=O)NCc1ccncn1
0.336 µM | COCCCN1CCC(NC(=O)c2cc(-n3nc(C(C)(C)C)cc3NC(=O)Nc3cccc4ccccc34)ccc2C)CC1
0.291 µM | Cc1ccc(-n2nc(C(C)(C)C)cc2NC(=O)Nc2cccc3ccccc23)cc1C(=O)NCCCN1CCOCC1
0.312 µM | Cc1ccc(-n2nc(C(C)(C)C)cc2NC(=O)Nc2cccc3ccccc23)cc1C(=O)N(CCCN)C(C)C
> 3.9 µM | Cc1ccc(-n2nc(C(C)(C)C)cc2NC(=O)Nc2cccc3ccccc23)cc1C(=O)NCCC1=CCCCC1
> 3.9 µM | COc1ccc(CCNC(=O)c2cc(-n3nc(C(C)(C)C)cc3NC(=O)Nc3cccc4ccccc34)ccc2C)cc1
> 3.9 µM | COc1ccccc1CCNC(=O)c1cc(-n2nc(C(C)(C)C)cc2NC(=O)Nc2cccc3ccccc23)ccc1C
0.14 µM | Cc1ccc(-n2nc(C(C)(C)C)cc2NC(=O)Nc2cccc3ccccc23)cc1C(=O)NCCN1CCN(C)CC1
0.786 µM | Cc1ccc(-n2nc(C(C)(C)C)cc2NC(=O)Nc2cccc3ccccc23)cc1C(=O)NCC(CC(C)C)C(N)=O (stereo not drawn)

biological target: T1, Mitogen-activated protein kinase 14; remark: another data set of the same source
Description: Binding affinity to full-length GST-tagged p38alpha by surface plasmon resonance assay

Kd | SMILES
0.055 µM | Cc1ccc(-n2nc(C(C)(C)C)cc2NC(=O)Nc2cccc3ccccc23)cc1C(=O)NCC#N
